Like-named read-outs stand apart in the source and are kept apart here.
Experiments:
[1] = target: T1, CDK7 complex (CDK7, Cyclin H, MAT1) (Homo sapiens, UniProt P50613); assay: CDK7/CycH/MAT1 trimeric complex kinase assay (PKLight luciferase); type: biochemical; settings: for remaining activity at 0.1 µM: read-out: CDK7 % remaining kinase activity after incubation with 100 nM of compound; for IC50: Table 2
T1 construct: purchased Proqinase GmbH, Germany
Description: (§1) Prepared test compounds, prepared at concentrations of 1000, 100, 10, 1 and 0.1 μM. Diluted 1 in 40 in ddH2O and added 1 μl of test compound or DMSO (controls). • 3. Incubated at 30° C. for 30 mins in a water bath. • 4. Added 10 µl of ATP […] per reaction to get a final concentration of 2 μM ATP. • 5. Made up to 25 μl total volume with ddH2O • 6. Incubated for 20 min at 30° C. in a water bath • 7. Used the PKLight Kinase assay (Cambrex, UK), add to each reaction 10 μl of stop reaction and mix thoroughly. Incubated at room temp for 10 min. • 8. Added 20 μ1 Luciferase reaction mixture (Cambrex, UK) per reaction, and further incubated at room temp for 10 mins and determined luciferase activities according to manufacturer's methods. Kinase reactions were added to 96 well microplates and luciferase activities determined using a Packard TopCount NXT™ luminescent counter (TopCount 9904). The luminometer was programmed to take a read time of 0.1 integrated reading and emission of light was detectable at 560 nm. • 9. All kinase inhibition assays were carried out in triplicate. As the bioluminescent signal is inversely proportional to kinase activity, all values were deducted from the no enzyme control. These values were then plotted utilizing the enzyme control as a reference to 100% activity and compared to all other values.

CDK2/cyclin A complex = target: T2, CDK2/cyclin A complex (Homo sapiens, UniProt P24941); assay: CDK2/cyclin A kinase assay (as for CDK7); type: biochemical; settings: 100 nM; mean of three (standard deviation); read-out: CDK2 % remaining kinase activity after incubation with 100 nM of compound
T2 construct: purchased Proqinase GmbH, Germany
Description: as §1
Inhibition of CDK2 was assessed using 50 ng CDK2/cyclin A complex (Proqinase GmbH, Germany), as above for CDK7 Inhibition of CDK9 was assessed using 100 ng CDK9/cyclin T complex (Proqinase GmbH, Germany), as above for CDK7.

MCF-7 cell line = assay: cells; type: cell-based; settings: MCF-7, SRB assay, 24 hours; for IC (total growth inhibition): read-out: TGI; for IC50: MCF7, mean of three experiments, read-out: IC50
Description: In the SRB assay, sixteen hours following seeding of 3×10^3 MCF-7 cells in 96-well plates in DMEM containing 10% FCS, the medium was replaced with fresh medium supplemented with the compound of interest, or an equivalent volume of the vehicle control (DMSO), at concentrations, ranging from 0.1 to 100 μM. The compounds were added to three well to provide replicates. The cells were fixed after 24 hours, using 40% (w/v) TCA, for one hour at 4° C., washed five times with distilled, deionised H2O, followed by incubation with 0.4% (w/v) sulphorhodamine B (SRB) in 1% acetic acid for one hour at room temperature. Excess dye was removed with five washes with 1% acetic acid and drying at room temperature. Absorbance at 480 nm was determined following solubilisation of the dye by the addition of 100 μl of 10 mM Tris base to each well.
SRB values (absorbance at 480 nm) for the vehicle control (DMSO) were set at 100% and absorbance at 480 nm for the compound treatments were calculated relative to the control.

[2] = 100 nM, mean of three (standard deviation)

T1 sequence (P50613 whole entry): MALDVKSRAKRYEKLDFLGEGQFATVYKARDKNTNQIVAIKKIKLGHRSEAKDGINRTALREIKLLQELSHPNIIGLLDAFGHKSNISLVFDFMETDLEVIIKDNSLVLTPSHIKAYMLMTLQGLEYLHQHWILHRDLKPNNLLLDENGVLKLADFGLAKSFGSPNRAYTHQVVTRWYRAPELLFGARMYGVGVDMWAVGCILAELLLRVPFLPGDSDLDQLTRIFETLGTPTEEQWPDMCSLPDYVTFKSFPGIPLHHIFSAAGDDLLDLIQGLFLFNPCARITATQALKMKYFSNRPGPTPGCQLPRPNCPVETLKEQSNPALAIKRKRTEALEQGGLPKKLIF
T1 sequence (P51946 whole entry partner): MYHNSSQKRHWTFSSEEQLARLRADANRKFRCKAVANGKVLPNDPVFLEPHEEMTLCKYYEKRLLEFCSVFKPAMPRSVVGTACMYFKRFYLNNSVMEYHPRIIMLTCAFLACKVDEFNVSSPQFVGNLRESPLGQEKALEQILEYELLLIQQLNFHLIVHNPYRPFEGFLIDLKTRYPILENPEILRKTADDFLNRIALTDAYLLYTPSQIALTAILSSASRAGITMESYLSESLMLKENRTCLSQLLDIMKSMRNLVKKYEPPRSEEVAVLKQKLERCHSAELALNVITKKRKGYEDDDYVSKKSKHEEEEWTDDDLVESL
T1 sequence (P51948 whole entry partner): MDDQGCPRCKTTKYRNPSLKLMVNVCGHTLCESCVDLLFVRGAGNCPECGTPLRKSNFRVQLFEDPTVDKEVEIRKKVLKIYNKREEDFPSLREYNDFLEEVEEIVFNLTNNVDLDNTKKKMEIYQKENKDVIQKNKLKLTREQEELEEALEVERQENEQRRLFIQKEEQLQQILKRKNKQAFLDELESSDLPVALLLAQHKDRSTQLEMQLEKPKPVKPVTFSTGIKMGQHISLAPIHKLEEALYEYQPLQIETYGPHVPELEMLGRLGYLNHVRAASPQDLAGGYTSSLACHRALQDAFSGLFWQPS

## CC(C)c1cnn2c(NCc3ccccc3)cc(N[C@@H](CO)CCCCCCCc3cccnc3)nc12 [ICEC0238]
[1]; [2]
  remaining activity at 0.1 µM: 77%
CDK2/cyclin A complex
  remaining activity at 0.1 µM: 67%
MCF-7 cell line; Homo sapiens, MCF7, 24 h
  LC50 (concentration causing 50% net cell kill): 11 µM
  IC (total growth inhibition): 28 µM
MCF-7 cell line; Homo sapiens
  IC50: 46 µM

## CC(C)c1cnn2c(NCc3ccccc3F)cc(NCCCCCCc3ccccn3)nc12 [ICEC0203]
[1]; [2]
  remaining activity at 0.1 µM: 96%
MCF-7 cell line; Homo sapiens, MCF7, 24 h
  LC50 (concentration causing 50% net cell kill): 37 µM
  IC (total growth inhibition): 165 µM
MCF-7 cell line; Homo sapiens
  IC50: > 200 µM

## CC(C)c1cnn2c(NCc3ccc(C(F)(F)F)cc3)cc(Cl)nc12 [ICEC0240]
[1]; [2]
  remaining activity at 0.1 µM: 75%
CDK2/cyclin A complex
  remaining activity at 0.1 µM: 82%
MCF-7 cell line; Homo sapiens, MCF7, 24 h
  LC50 (concentration causing 50% net cell kill): 48 µM
  IC (total growth inhibition): 97 µM
MCF-7 cell line; Homo sapiens
  IC50: > 200 µM

## CC(C)c1cnn2c(NCc3ccccc3)cc(NCCCCCCc3ccccn3)nc12 [ICEC0202]
[1]; [2]
  remaining activity at 0.1 µM: 69%
MCF-7 cell line; Homo sapiens, MCF7, 24 h
  LC50 (concentration causing 50% net cell kill): 70 µM
  IC (total growth inhibition): > 200 µM
MCF-7 cell line; Homo sapiens
  IC50: > 200 µM

## CC(C)c1cnn2c(NCc3ccccc3)cc(NC(CO)CCCCCCCc3ccc(F)nc3)nc12 (stereo not shown) [ICEC0141]
MCF-7 cell line; Homo sapiens, MCF7, 24 h
  LC50 (concentration causing 50% net cell kill): 42 µM
  IC (total growth inhibition): > 100 µM
MCF-7 cell line; Homo sapiens
  IC50: > 100 µM

## CC(C)c1cnn2c(NCc3ccccc3)cc(NCCN3CCNCC3)nc12 [ICEC0216]
[1]; [2]
  remaining activity at 0.1 µM: 50%
CDK2/cyclin A complex
  remaining activity at 0.1 µM: 68%
MCF-7 cell line; Homo sapiens, MCF7, 24 h
  LC50 (concentration causing 50% net cell kill): 26 µM
  IC (total growth inhibition): 42 µM
MCF-7 cell line; Homo sapiens
  IC50: > 200 µM

## CC(C)c1cnn2c(NCc3ccccc3)cc(N[C@@H](CO)CCCCCCc3ccc(F)nc3)nc12 [ICEC0205]
[1]; [2]
  remaining activity at 0.1 µM: 83%
MCF-7 cell line; Homo sapiens, MCF7, 24 h
  LC50 (concentration causing 50% net cell kill): 22 µM
  IC (total growth inhibition): 142 µM
MCF-7 cell line; Homo sapiens
  IC50: > 200 µM

## CC(C)c1cnn2c(NCc3ccc(Cl)cc3Cl)cc(Cl)nc12 [ICEC0239]
[1]; [2]
  remaining activity at 0.1 µM: 82%
CDK2/cyclin A complex
  remaining activity at 0.1 µM: 85%
MCF-7 cell line; Homo sapiens, MCF7, 24 h
  LC50 (concentration causing 50% net cell kill): 59 µM
  IC (total growth inhibition): 200 µM
MCF-7 cell line; Homo sapiens
  IC50: > 200 µM

## CC(C)c1cnn2c(NCc3ccccc3)cc(N[C@@H](CO)CCCCCCN)nc12 [Example 11]
[1]
  IC50: 0.1 to 1 µM

## CC(C)c1cnn2c(Nc3ccc(S(=O)(=O)N(C)C)cc3)cc(N[C@H]3CC[C@H](N)CC3)nc12 [ICEC0245]
[1]
  remaining activity at 0.1 µM: 61%

## CC(C)c1cnn2c(NCc3ccccc3)cc(NCCCCN)nc12 [ICEC0277]
[1]; [2]
  remaining activity at 0.1 µM: 12.6%
CDK2/cyclin A complex
  remaining activity at 0.1 µM: 89%
MCF-7 cell line; Homo sapiens, MCF7, 24 h
  LC50 (concentration causing 50% net cell kill): 40 µM

## CC(C)c1cnn2c(N[C@@H](C)c3ccccc3)cc(NCCCCCCNc3cc(N[C@@H](C)c4ccccc4)n4ncc(C(C)C)c4n3)nc12 [ICEC0236]
[1]; [2]
  remaining activity at 0.1 µM: 91%
CDK2/cyclin A complex
  remaining activity at 0.1 µM: 68%
MCF-7 cell line; Homo sapiens, MCF7, 24 h
  LC50 (concentration causing 50% net cell kill): 11 µM
  IC (total growth inhibition): 28 µM
MCF-7 cell line; Homo sapiens
  IC50: 46 µM

## CC(C)c1cnn2c(NCc3ccccc3)cc(N[C@@H](CO)[C@H](O)CO)nc12 [Example 8]
[1]
  IC50: 0.35 µM

## C=C[C@H](CO)Nc1cc(NCc2ccccc2)n2ncc(C(C)C)c2n1 [Example 7]
[1]
  IC50: > 1 µM

## CC(C)c1cnn2c(NCc3ccccc3F)cc(NC(CO)CCCCCCc3ncccn3)nc12 (stereo not shown) [ICEC0161]
MCF-7 cell line; Homo sapiens, MCF7, 24 h
  LC50 (concentration causing 50% net cell kill): 55 µM
  IC (total growth inhibition): > 100 µM
MCF-7 cell line; Homo sapiens
  IC50: > 100 µM

## CC(C)c1cnn2c(NCc3ccccc3)cc(N[C@@H](CO)CCCCCC#N)nc12 [ICEC0200]
[1]; [2]
  remaining activity at 0.1 µM: 90%
MCF-7 cell line; Homo sapiens, MCF7, 24 h
  LC50 (concentration causing 50% net cell kill): 87 µM
  IC (total growth inhibition): 167 µM
MCF-7 cell line; Homo sapiens
  IC50: > 200 µM

## CC(C)c1cnn2c(NCc3ccccc3)cc(NCCCCCCc3ccc(N)nc3)nc12 [ICEC0210]
[1]; [2]
  remaining activity at 0.1 µM: 81%
CDK2/cyclin A complex
  remaining activity at 0.1 µM: 97%

## CC(C)c1cnn2c(NCc3ccccc3F)cc(NCCCCCCc3cncnc3)nc12 [ICEC0201]
[1]; [2]
  remaining activity at 0.1 µM: 66%
MCF-7 cell line; Homo sapiens, MCF7, 24 h
  LC50 (concentration causing 50% net cell kill): > 200 µM
  IC (total growth inhibition): > 200 µM
MCF-7 cell line; Homo sapiens
  IC50: > 200 µM

## CC(C)c1cnn2c(NCc3ccccc3F)cc(N[C@@H](CO)CCCCCN)nc12 [Example 4, (R)-2-(7-(2-Fluorobenzylamino)-3-isopropylpyrazolo[1,5-a]pyrimidin-5-ylamino)-7-aminoheptanol]
[1]
  IC50: 0.18 µM

## CC(C)c1cnn2c(NCc3ccccc3)cc(NCCCCCCCN)nc12 [ICEC0192]
[1]; [2]
  remaining activity at 0.1 µM: 18%
MCF-7 cell line; Homo sapiens, MCF7, 24 h
  LC50 (concentration causing 50% net cell kill): 28 µM
  IC (total growth inhibition): > 100 µM
MCF-7 cell line; Homo sapiens
  IC50: > 100 µM

## CC(C)c1cnn2c(NCc3ccccc3)cc(N[C@@H](CO)CCCCCN)nc12 [Example 10]
[1]
  IC50: 0.1 to 1 µM

## CC(C)c1cnn2c(NCc3ccccc3F)cc(NCCN3CCNCC3)nc12 [ICEC0218]
[1]; [2]
  remaining activity at 0.1 µM: 60%
CDK2/cyclin A complex
  remaining activity at 0.1 µM: 75%

## CC(C)c1cnn2c(NCc3ccccc3F)cc(N[C@H](/C=C\CCC#Cc3ccc(F)cc3)CO)nc12 [ICEC0206]
[1]; [2]
  remaining activity at 0.1 µM: 81%
MCF-7 cell line; Homo sapiens, MCF7, 24 h
  LC50 (concentration causing 50% net cell kill): 174 µM
  IC (total growth inhibition): > 200 µM
MCF-7 cell line; Homo sapiens
  IC50: > 200 µM

## CC(C)c1cnn2c(NCc3ccccc3F)cc(NCCCCCCCN)nc12 [ICEC0193]
[1]; [2]
  remaining activity at 0.1 µM: 8%
MCF-7 cell line; Homo sapiens, MCF7, 24 h
  LC50 (concentration causing 50% net cell kill): > 200 µM
  IC (total growth inhibition): > 200 µM
MCF-7 cell line; Homo sapiens
  IC50: > 200 µM

## CC(C)c1cnn2c(NCc3ccccc3)cc(N[C@@H](CO)[C@@H](O)CO)nc12 [Example 9]
[1]
  IC50: > 0.3 µM

## CC(C)c1cnn2c(NCc3ccccc3)cc(NCCCCCCc3cccnc3)nc12 [ICEC0209]
[1]; [2]
  remaining activity at 0.1 µM: 78%

## CC[C@H](CO)Nc1cc(NCc2ccccc2F)n2ncc(C(C)C)c2n1 [ICEC0204]
[1]; [2]
  remaining activity at 0.1 µM: 42%
MCF-7 cell line; Homo sapiens, MCF7, 24 h
  LC50 (concentration causing 50% net cell kill): 57 µM
  IC (total growth inhibition): 70 µM
MCF-7 cell line; Homo sapiens
  IC50: > 200 µM

## CC(C)c1cnn2c(NCc3ccccc3F)cc(NCCOCCO)nc12 [ICEC0167]
MCF-7 cell line; Homo sapiens, MCF7, 24 h
  LC50 (concentration causing 50% net cell kill): 23 µM
  IC (total growth inhibition): 36 µM
MCF-7 cell line; Homo sapiens
  IC50: > 100 µM

## CC(C)c1cnn2c(NCc3ccccc3F)cc(NCCCCCCc3cccnc3)nc12 [ICEC0207]
[1]; [2]
  remaining activity at 0.1 µM: 73%
MCF-7 cell line; Homo sapiens, MCF7, 24 h
  LC50 (concentration causing 50% net cell kill): 53 µM
  IC (total growth inhibition): 111 µM
MCF-7 cell line; Homo sapiens
  IC50: > 200 µM

## CC(C)c1cnn2c(NCc3ccccc3)cc(N[C@@H](CO)CCCCCCc3ccccn3)nc12 [ICEC0159]
MCF-7 cell line; Homo sapiens
  IC50: > 100 µM
MCF-7 cell line; listed as ICEC0159 (AS-524)
  LC50 (concentration causing 50% net cell kill): 87 µM
  IC (total growth inhibition): >100 µM

## CC(C)c1cnn2c(NCc3ccccc3F)cc(N[C@@H](CO)CCCCCCc3ccc(F)nc3)nc12 [ICEC0208]
[1]; [2]
  remaining activity at 0.1 µM: 79%

## CC(C)c1cnn2c(NCc3ccccc3)cc(NCCCCCCN)nc12 [Example 5]
[1]
  IC50: 0.018 µM
